Results on one compound are retold here after patent US9149034B2, “Agrochemical formulations comprising co-polymers based on diisocyanates” (BASF SE, priority 2006, dated 2015).

The nature of data set [1]: Root uptake test with radioactively marked boscalid, drench of wheat plants in vermiculite. The note with it: in vivo, 120 h. The method, then: To test the root systemicity of the ai, radioactively marked boscalid (prepared in analogy to EP 0545099 based on ^14C marked pyridin) was used. For the tests wheat plants in vermiculite were drenched with boscalid/polymer solutions in water/acetone mixtures. As reference boscalid solutions in water/acetone mixtures without polymers were used [25 μl cold active solution (10000 ppm stock solution in acetone), 20 μl hot active solution (0.1 ppm in acetone, 1 μl corresponds to ˜22000 Bcq), 25 μl acetone and 25 μl polymer solution (10000 ppm stock solution in water) were mixed and refilled with water to 10 ml. After 48 and 120 hours leafs were cut from the plant and dissolved in Soluene 350 (60-80% toluene, 20-40% dodecyl(dimethyl)(tetradecyl)ammonium hydroxide, 2.5-10% methanol). Afterwards the radioactivity in the plant material was measured. High radioactivity in the plant material corresponds to high active ingredient uptake.

Data set [2] is described as follows: Leaf uptake of radioactively marked boscalid applied dropwise to leaves of wheat plants. The note with it: in vivo, 168 h. The method, then: To test the leaf uptake with polymers water/DMF solutions with radioactively marked boscalid (1 μl cold active solution (10000 ppm solution in DMF), 10 μl hot active solution (0.1 ppm in DMF, ˜2000000 counts/μl), 9 μl polymer solution (1000 ppm solution in water) and 80 μl DMF) were applied dropwise to the leaves of a wheat plants (10 drops per leap. After 48 and 168 hours respectively. The leaves were cut off after the respective time and the excess active on the leaf surface eliminated by stripping the leaf with a cellulose acetate film. The leaves were then dissolved with Soluene 350 to determine the absolute amount of active ingredient that was taken up into the plant. As reference the active was applied in water/DMF solution without polymer.

For data set [3], the system named is Alteria, ALTESO P6 (Bayer). The data set is described as follows: Test with pathogenes: tomatoe plants in Hoagland solution with boscalid or boscalid/polymer, infested with fungus. As to conditions: for Infestation Rating: Table 3 experiment, untreated = 100%; for Rating (infestation): Table 4 experiment. Type of data set: in vivo. From the text: To test the polymers with the actual pathogenes, tomatoe plants were directly grown in hoagland solution. Hoagland solution consists of the following ingredients 0.25 v % of 1M KNO3 solution in water, 0.1 v % of 1M MgSO4 solution in water, 0.05 v % of 1M KH2PO4 solution in water, 0.25 v % 1M Ca(NO3)2) solution in water, 0.05 v % of a trace solution consisting of 2.86 g/l H3BO3, 1.81 g/l MnCl2*4H2O, 0.22 g/l ZnSO4*7H2O, 0.08 g/l CuSO4*5H2O, 0.016 g/l MoO3 in water, 0.075 v % Sequestrene 138 Fe consisting of 30 g/l sodium ferric ethylenediamine di-(o-hydroxyphenylacetate) in water, 99.225 v % water sterilized and pH adjusted to 6-6.5 with NaOH.
After 16 days the plants were transfered to containers with 240 ml boscalid or boscalid/polymer (the ratio boscalid/polymer is 1:1 per weight) solutions (1.3, 0.43, 0.14 and 0.05 ppm) in Hoagland solution containing 0.8 vol % acetone. 6 days after the ai application the plants were infested with fungus (Alteria, ALTESO P6 (Bayer)). After 5 additional days the infestation was rated (column “Infestation Rating”) and plants that had not been treated with ai were used as reference for 100% infestation.
Two separate experiments were performed. In one test, polymers A and B were tested (see table 3), in the other experiment, polymers C and F were tested (see table 4).

Where [4] appears, read: 0.05 ppm active (or polymer/active 1:1).
[5] abbreviates: 0.14 ppm active (or polymer/active 1:1).
[6] abbreviates: 0.43 ppm active (or polymer/active 1:1).

Turning to `O=C(Nc1ccccc1-c1ccc(Cl)cc1)c1cccnc1Cl` [Reference without polymer, boscalid], the “Uptake (radioactivity in leaf material, active ingredient uptake)” value in data set [1] was 219 Bcq. In addition, in data set [2], the “Uptake [% applied]” value is 1.3 % applied. For the same compound, the “Infestation Rating” value in data set [3] (setting [4]) amounted to 77%; in data set [3] (setting [5]), 60%; in data set [3] (setting [6]), 13%; in data set [3] (1.3 ppm active (or polymer/active 1:1), rated 5 days after infestation), 1%. In addition, the “Rating (infestation)” value came out at 53% in data set [3] (setting [4]), 47% in data set [3] (setting [5]), 17% in data set [3] (setting [6]) and 0% in data set [3] (1.3 ppm active (or polymer/active 1:1)).
